According to the kinase profiling compilation of Christmann-Franck et al. (2016):

Tests used:
MAP3K9 (human) = MAP3K9 (human) (UniProt P80192)
ERBB4 (human) = ERBB4 (human) (UniProt Q15303)
MINK1 (human) = MINK1 (human) (UniProt Q8N4C8)
MYLK (human) = MYLK (human) (UniProt Q15746)
IRAK4 (human) = IRAK4 (human) (UniProt Q9NWZ3)
BRSK1 (human) = BRSK1 (human) (UniProt Q8TDC3)
MAP3K11 (human) = MAP3K11 (human) (UniProt Q16584)
MARK4 (human) = MARK4 (human) (UniProt Q96L34)
[1] = tested on: AKT1 (human), P31749 [S473D]
Sequence of AKT1 (human), P31749 [S473D] (P31749 whole entry S473D, looked up): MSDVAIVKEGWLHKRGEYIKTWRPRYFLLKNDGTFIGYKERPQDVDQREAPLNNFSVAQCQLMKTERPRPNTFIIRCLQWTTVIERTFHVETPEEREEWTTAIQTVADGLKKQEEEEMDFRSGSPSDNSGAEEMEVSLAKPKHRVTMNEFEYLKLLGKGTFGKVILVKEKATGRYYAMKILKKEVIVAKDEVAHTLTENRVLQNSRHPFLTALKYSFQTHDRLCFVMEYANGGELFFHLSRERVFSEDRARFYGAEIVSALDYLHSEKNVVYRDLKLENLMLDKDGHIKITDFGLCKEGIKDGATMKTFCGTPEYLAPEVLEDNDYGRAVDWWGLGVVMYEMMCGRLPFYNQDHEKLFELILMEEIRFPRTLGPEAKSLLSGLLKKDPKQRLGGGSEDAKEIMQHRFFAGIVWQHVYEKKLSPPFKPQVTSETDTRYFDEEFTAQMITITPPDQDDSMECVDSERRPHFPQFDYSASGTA

STK11 (human) = STK11 (human) (UniProt Q15831)
Sequence of STK11 (human) (Q15831 whole entry, looked up): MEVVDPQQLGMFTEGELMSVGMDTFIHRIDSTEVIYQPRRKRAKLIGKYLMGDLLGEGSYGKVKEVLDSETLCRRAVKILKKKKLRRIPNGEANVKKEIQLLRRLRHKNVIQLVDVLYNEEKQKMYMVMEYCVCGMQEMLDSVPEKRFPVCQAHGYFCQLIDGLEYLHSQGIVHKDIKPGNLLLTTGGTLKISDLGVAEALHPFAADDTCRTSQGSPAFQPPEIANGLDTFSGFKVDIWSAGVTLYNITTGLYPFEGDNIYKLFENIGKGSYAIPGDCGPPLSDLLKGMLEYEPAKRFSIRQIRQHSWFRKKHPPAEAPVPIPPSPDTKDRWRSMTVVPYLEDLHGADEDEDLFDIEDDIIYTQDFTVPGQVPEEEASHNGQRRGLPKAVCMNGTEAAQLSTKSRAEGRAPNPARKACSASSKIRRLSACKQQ

MAPK10 (human) = MAPK10 (human) (UniProt P53779)
NUAK1 (human) = NUAK1 (human) (UniProt O60285)
MARK2 (human) = MARK2 (human) (UniProt Q7KZI7)
Sequence of MARK2 (human) (Q7KZI7 whole entry, looked up): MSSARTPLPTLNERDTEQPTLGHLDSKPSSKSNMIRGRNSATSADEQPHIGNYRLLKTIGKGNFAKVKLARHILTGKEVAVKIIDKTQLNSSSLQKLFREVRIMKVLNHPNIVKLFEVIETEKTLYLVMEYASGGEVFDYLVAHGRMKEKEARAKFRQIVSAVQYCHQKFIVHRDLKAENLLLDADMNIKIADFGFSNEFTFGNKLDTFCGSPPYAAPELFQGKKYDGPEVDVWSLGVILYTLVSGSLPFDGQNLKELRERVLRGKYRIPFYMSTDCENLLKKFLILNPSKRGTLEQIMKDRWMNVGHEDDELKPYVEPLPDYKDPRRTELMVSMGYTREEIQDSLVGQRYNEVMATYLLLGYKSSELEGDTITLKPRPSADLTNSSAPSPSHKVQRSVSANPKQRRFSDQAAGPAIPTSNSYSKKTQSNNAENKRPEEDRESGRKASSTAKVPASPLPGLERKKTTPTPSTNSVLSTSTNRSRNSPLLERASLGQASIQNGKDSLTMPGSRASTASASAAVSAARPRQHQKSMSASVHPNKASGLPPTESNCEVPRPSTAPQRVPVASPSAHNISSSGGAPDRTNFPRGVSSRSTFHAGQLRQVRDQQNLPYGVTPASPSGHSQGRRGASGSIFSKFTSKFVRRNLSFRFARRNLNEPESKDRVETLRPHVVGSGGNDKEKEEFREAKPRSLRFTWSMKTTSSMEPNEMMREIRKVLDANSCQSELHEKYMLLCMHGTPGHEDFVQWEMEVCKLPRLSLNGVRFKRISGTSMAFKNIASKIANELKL

[2] = tested on: ABL1 (human), P00519 [F317I]; test: KINOMEscan competition binding; conditions: compound 10.0 µM
ABL1 (human) = ABL1 (human) (UniProt P00519); test: KINOMEscan competition binding; conditions: compound 10.0 µM
[3] = tested on: ABL1 (human), P00519 [F317L]; test: KINOMEscan competition binding; conditions: compound 10.0 µM
[4] = tested on: ABL1 (human), P00519 [H396P]; test: KINOMEscan competition binding; conditions: compound 10.0 µM
MTOR (human) = MTOR (human) (UniProt P42345)
INSR (human) = INSR (human) (UniProt P06213)
MYLK3 (human) = MYLK3 (human) (UniProt Q32MK0)

Sequence of MAP3K9 (human) (P80192 whole entry, looked up): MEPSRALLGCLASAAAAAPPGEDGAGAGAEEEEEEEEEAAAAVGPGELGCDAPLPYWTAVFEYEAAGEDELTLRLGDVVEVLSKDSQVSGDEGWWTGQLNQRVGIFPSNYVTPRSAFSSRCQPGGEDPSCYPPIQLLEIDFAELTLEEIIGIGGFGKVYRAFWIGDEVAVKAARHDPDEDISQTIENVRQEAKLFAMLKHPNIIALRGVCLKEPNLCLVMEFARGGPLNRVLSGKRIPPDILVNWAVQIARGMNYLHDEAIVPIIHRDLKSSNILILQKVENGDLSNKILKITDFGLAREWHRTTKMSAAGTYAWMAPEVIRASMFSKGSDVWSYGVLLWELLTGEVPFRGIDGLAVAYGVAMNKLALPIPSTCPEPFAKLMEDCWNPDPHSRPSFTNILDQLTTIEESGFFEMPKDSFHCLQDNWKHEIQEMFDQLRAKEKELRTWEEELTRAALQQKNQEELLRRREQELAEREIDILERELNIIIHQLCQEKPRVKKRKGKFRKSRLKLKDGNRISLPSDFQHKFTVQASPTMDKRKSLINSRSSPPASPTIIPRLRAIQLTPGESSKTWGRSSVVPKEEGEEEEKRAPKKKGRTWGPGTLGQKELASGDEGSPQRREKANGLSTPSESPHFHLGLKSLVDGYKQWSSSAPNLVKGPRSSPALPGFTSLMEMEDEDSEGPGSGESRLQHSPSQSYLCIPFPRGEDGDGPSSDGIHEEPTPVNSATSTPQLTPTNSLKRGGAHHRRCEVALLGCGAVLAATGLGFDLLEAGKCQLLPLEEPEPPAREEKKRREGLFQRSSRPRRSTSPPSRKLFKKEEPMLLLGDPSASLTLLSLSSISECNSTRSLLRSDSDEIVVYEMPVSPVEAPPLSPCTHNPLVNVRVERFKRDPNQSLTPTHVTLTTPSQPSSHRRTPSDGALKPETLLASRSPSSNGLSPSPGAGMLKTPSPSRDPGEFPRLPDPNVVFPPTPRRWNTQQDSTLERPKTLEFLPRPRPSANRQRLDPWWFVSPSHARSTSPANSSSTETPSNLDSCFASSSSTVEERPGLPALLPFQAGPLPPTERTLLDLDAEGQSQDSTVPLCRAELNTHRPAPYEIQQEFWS
Sequence of MYLK (human) (Q15746 whole entry, looked up): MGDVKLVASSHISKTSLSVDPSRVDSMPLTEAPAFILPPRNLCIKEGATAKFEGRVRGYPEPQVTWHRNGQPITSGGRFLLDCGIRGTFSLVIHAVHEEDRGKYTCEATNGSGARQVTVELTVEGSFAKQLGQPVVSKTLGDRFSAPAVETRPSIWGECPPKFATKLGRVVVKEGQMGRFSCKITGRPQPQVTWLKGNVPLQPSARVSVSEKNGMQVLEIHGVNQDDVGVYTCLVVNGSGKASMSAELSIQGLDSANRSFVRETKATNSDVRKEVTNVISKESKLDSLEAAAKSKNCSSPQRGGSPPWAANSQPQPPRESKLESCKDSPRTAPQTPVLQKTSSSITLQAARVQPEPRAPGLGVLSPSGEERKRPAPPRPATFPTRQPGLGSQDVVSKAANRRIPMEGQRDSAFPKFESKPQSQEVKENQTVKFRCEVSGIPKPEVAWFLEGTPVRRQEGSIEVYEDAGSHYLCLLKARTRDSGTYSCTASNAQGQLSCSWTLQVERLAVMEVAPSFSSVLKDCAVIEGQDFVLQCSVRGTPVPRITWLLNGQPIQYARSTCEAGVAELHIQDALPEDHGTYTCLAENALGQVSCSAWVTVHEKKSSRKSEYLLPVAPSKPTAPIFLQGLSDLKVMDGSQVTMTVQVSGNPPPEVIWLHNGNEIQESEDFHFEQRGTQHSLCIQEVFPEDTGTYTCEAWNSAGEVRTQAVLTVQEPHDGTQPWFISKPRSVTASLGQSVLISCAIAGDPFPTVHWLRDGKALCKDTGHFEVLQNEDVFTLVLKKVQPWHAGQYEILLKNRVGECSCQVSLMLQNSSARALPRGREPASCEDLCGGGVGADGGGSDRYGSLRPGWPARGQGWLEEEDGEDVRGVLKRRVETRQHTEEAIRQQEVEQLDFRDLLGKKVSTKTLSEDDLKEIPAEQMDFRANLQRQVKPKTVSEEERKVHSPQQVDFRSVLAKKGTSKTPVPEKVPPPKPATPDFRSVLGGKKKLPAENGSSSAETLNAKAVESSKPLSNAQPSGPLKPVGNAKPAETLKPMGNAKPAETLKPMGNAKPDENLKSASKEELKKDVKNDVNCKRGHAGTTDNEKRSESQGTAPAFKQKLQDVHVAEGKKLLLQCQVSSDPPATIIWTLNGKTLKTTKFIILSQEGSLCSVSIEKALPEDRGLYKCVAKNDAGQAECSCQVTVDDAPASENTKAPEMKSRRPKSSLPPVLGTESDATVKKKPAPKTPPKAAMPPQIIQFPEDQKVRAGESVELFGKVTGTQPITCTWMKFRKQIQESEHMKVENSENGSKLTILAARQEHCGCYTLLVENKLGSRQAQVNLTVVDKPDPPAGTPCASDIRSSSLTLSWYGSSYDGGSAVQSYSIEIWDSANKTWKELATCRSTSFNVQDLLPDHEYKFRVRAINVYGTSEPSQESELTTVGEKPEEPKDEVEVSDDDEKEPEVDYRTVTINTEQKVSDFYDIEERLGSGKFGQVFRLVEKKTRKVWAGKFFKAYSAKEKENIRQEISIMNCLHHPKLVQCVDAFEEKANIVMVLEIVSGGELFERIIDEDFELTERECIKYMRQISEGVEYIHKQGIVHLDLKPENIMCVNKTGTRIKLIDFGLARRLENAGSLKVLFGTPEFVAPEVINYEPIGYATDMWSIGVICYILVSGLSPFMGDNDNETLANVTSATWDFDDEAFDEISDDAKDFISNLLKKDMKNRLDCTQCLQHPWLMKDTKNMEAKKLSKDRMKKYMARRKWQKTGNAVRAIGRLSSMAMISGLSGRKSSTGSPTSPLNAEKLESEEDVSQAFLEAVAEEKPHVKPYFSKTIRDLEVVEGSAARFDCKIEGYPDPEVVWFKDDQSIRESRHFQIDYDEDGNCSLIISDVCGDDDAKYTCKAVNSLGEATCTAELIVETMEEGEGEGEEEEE

Row | Compound | per cent of control (MAP3K9 (human); compound 1.0 µM) [%] | per cent of control (MAP3K9 (human); compound 10.0 µM) [%] | per cent of control (ERBB4 (human); compound 1.0 µM) [%] | per cent of control (ERBB4 (human); compound 10.0 µM) [%] | per cent of control (MINK1 (human); compound 1.0 µM) [%] | per cent of control (MINK1 (human); compound 10.0 µM) [%] | per cent of control (MYLK (human); compound 1.0 µM) [%] | per cent of control (MYLK (human); compound 10.0 µM) [%] | per cent of control (IRAK4 (human); compound 1.0 µM) [%] | per cent of control (IRAK4 (human); compound 10.0 µM) [%] | per cent of control (BRSK1 (human); compound 10.0 µM) [%] | per cent of control (MAP3K11 (human); compound 1.0 µM) [%] | per cent of control (MAP3K11 (human); compound 10.0 µM) [%] | per cent of control (MARK4 (human); compound 1.0 µM) [%] | per cent of control (MARK4 (human); compound 10.0 µM) [%] | per cent of control ([1]; compound 1.0 µM) [%] | per cent of control ([1]; compound 10.0 µM) [%] | per cent of control (STK11 (human); compound 1.0 µM) [%] | per cent of control (STK11 (human); compound 10.0 µM) [%] | per cent of control (MAPK10 (human); compound 1.0 µM) [%] | also measured
1 | CCC(=O)N1CCN(c2ccc(-n3c(=O)ccc4cnc5ccc(-c6cnc7ccccc7c6)cc5c43)cc2C(F)(F)F)CC1 | 92 | 48 | 110 | 111 | 69 | 14 | 94 | 83 | 112 | 76 | 94 | 99 | 86 | 94 | 97 | 94 | 71 | 96 | 80 | 99 | per cent of control (BRSK1 (human); compound 1.0 µM): 99%; per cent of control (MAPK10 (human); compound 10.0 µM): 79%; per cent of control (NUAK1 (human); compound 1.0 µM): 101%; per cent of control (NUAK1 (human); compound 10.0 µM): 79%; per cent of control (MARK2 (human); compound 1.0 µM): 117%; per cent of control (MARK2 (human); compound 10.0 µM): 102%; kinase still bound, per cent of control [2]: 100%; kinase still bound, per cent of control (ABL1 (human)): 60%; kinase still bound, per cent of control [3]: 100%; kinase still bound, per cent of control [4]: 68%
2 | COC(=O)Nc1ccc(-c2nc(N3CCOCC3)c3cnn(C4CCN(C(=O)OC)CC4)c3n2)cc1 | 95 | 109 | 91 | 108 | 100 | 100 | 97 | 87 | 107 | 114 | 94 | 92 | 106 | 91 | 109 | 89 | 87 | 102 | 112 | 94 | per cent of control (MAPK10 (human); compound 10.0 µM): 106%; per cent of control (NUAK1 (human); compound 1.0 µM): 94%; per cent of control (NUAK1 (human); compound 10.0 µM): 82%; per cent of control (MARK2 (human); compound 1.0 µM): 96%; per cent of control (MARK2 (human); compound 10.0 µM): 118%; IC50 (MTOR (human)): 15.8 nM
3 | CC(C)n1nc(-c2cc3cc(O)ccc3[nH]2)c2c(N)ncnc21 |  |  |  |  |  |  |  |  |  |  |  |  |  |  |  |  |  |  |  |  | per cent of control (INSR (human); compound 1.0 µM): 69%; per cent of control (INSR (human); compound 10.0 µM): 58%
4 | COc1ccc(-c2ccc3c(N4CCOCC4)nc(N4C[C@@H](C)O[C@@H](C)C4)nc3n2)cc1CO |  |  |  |  |  |  |  |  |  |  |  |  |  |  |  |  |  |  |  |  | per cent of control (MYLK3 (human); compound 1.0 µM): 82%; per cent of control (MYLK3 (human); compound 10.0 µM): 104%; per cent of control (INSR (human); compound 1.0 µM): 81%; per cent of control (INSR (human); compound 10.0 µM): 67%
